Source: ChEMBL document CHEMBL5729293, “Inhibitors of KEAP1-Nrf2 protein-protein interaction” (2022)

Assay: Fluorescence Based Assay: The details of the KEAP1 KELCH ThermoFluor® Assay Construct are as follows: Kelch domain of human KEAP 1 (321-624 aa) was used in the assay. The protein was expressed in E. coli with 6His tag that was cleaved prior to receipt for use.ThermoFluor® experiments were carried out using instruments owned by Janssen Research and Discovery, L.L.C. through its acquisition of 3-Dimensional Pharmaceuticals, Inc. 1,8-ANS (Invitrogen) was used as a fluorescent dye. Protein (KEAP Kelch) and compound solutions were dispensed into black 384-well polypropylene PCR microplates (Abgene) and overlayed with silicone oil (1 μL, Fluka, type DC 200) to prevent evaporation.Reference wells contained KEAP Kelch without compounds, and the assay conditions were as follows: 1.1 μM (0.037mg/mL) KEAP Kelch, 80 μM 1,8-ANS, 25 mM PIPES, pH 7.0, 100 mM NaCl, 0.002% Tween-20.

Q: With Cc1ccc([C@@H](c2ccn3c(C(F)(F)F)nnc3c2C)C(C)(C)C(=O)O)cc1CN1CC2(CC2)Oc2nc(OCCN3CCCC3)c(C)cc2S1(=O)=O as the molecule, how does the Kd read?
A: The Kd was < 1 nM.

Q: For Cc1ccc([C@@H](c2ccn3c(C(F)F)nnc3c2C)C(C)(C)C(=O)O)cc1CN1CC2(CC2)Oc2nc(OCCN3CCCCC3)c(C)cc2S1(=O)=O, which Kd is on record?
A: Its Kd is < 1 nM.

Q: Which Kd does the source give for Cc1ccc([C@H](c2ccn3c(C(F)(F)F)nnc3c2C)C(C)(C)C(=O)O)cc1CN1CC2(CCOCC2)Oc2nc(OCCN3CCC(F)(F)CC3)ccc2S1(=O)=O here?
A: Its Kd is < 1 nM.

Q: For Cc1ccc([C@@H](c2ccn3c(C(F)(F)F)nnc3c2C)C(C)(C)C(=O)O)cc1CN1CC2(CC2)Oc2nc(OCCN3CCCCC3)c(C)cc2S1(=O)=O, which Kd is on record?
A: Its Kd is < 1 nM.

Q: With Cc1ccc([C@H](c2ccn3c(C(F)(F)F)nnc3c2C)C(C)(C)C(=O)O)cc1CN1CC2(CCOCC2)Oc2nc(NCCN3CCNCC3)c(C)cc2S1(=O)=O as the molecule, how does the Kd read?
A: Its Kd is < 1 nM.

Q: With Cc1ccc([C@@H](c2ccn3c(C(F)F)nnc3c2C)C(C)(C)C(=O)O)cc1CN1CC2(CCOCC2)Oc2nc(OCCN3CCCC3)c(C)cc2S1(=O)=O as the molecule, how does the Kd read?
A: The Kd was < 1 nM.

Q: With Cc1ccc([C@@H](c2ccn3c(C(F)(F)F)nnc3c2C)C(C)(C)C(=O)O)cc1CN1CC2(CC2)Oc2nc(OCCN3CCCCC3)ccc2S1(=O)=O as the molecule, how does the Kd read?
A: Its Kd is < 1 nM.

Q: Which Kd does the source give for CCn1nnc2c(C)c([C@H](CC(=O)O)c3ccc(C)c(CN4C[C@H]5CCCCN5c5ncccc5S4(=O)=O)n3)ccc21 here?
A: Its Kd is < 1 nM.

Q: Which Kd does the source give for Cc1ccc([C@H](c2ccn3c(C(F)(F)F)nnc3c2C)C(C)(C)C(=O)O)cc1CN1CC2(CCOCC2)Oc2nc(NC(C)CN3CCCCC3)c(C)cc2S1(=O)=O (stereo not given in full) here?
A: Its Kd is < 1 nM.

Q: With Cc1cnc2c(c1)S(=O)(=O)N(Cc1cc([C@@H](c3ccn4c(C(F)F)nnc4c3C)C(C)(C)C(=O)O)ncc1C)CC1(CC1)O2 as the molecule, how does the Kd read?
A: The Kd was < 1 nM.

Q: For Cc1ccc([C@H](CC(=O)O)c2ccn3c(C(F)(F)F)nnc3c2C)cc1CN1CC2CCCCN2c2ncc(C#N)cc2S1(=O)=O (stereo not given in full), which Kd is on record?
A: Its Kd is < 1 nM.

Q: For Cc1ccc([C@H](c2ccn3c(C(F)(F)F)nnc3c2)C(C)(C)C(=O)O)cc1CN1CC2(CCOCC2)Oc2ncccc2S1(=O)=O, which Kd is on record?
A: The Kd was < 1 nM.

Q: Which Kd does the source give for Cc1ccc([C@@H](c2ccn3c(C(F)(F)F)nnc3c2C)C(C)(C)C(=O)O)cc1CN1CC2(CCOCC2)Oc2nc(CCC(=O)NCCOCCN)ccc2S1(=O)=O here?
A: Its Kd is > 10000 nM.

Q: Which Kd does the source give for CCn1nnc2c(C)c([C@H](CC(=O)O)c3ccc(C)c(CN4C[C@@H]5CCCCN5c5ncccc5S4(=O)=O)n3)ccc21 here?
A: Its Kd is < 1 nM.

Q: Which Kd does the source give for Cc1ccc([C@H](c2ccn3c(C(F)(F)F)nnc3c2C)C(C)(C)C(=O)O)cc1CN1CC2(CCNCC2)Oc2ncccc2S1(=O)=O here?
A: The Kd was > 10000 nM.

Q: Which Kd does the source give for Cc1ccc([C@H](c2ccn3c(C(F)(F)F)nnc3c2C)C(C)(C)C(=O)O)cc1CN1CC2(CCOCC2)Oc2nc(N[C@H](C)CN3CCOCC3)c(C)cc2S1(=O)=O here?
A: Its Kd is < 1 nM.

Q: With Cc1cnc2c(c1)S(=O)(=O)N(Cc1cc([C@@H](c3ccn4c(C(F)(F)F)nnc4c3C)C(C)(C)C(=O)O)ccc1C)CC1(CNC1)O2 as the molecule, how does the Kd read?
A: Its Kd is < 1 nM.

Q: Which Kd does the source give for Cc1ccc([C@H](c2ccn3c(C(F)(F)F)nnc3c2C)C(C)(C)C(=O)O)cc1CN1CC2(CCOCC2)Oc2nc(OCCC3CCNCC3)c(C)cc2S1(=O)=O here?
A: The Kd was < 1 nM.

Q: With Cc1ccc([C@@H](c2ccn3c(C(F)(F)F)nnc3c2C)C(C)(C)C(=O)O)nc1CN1CC2(CCOCC2)Oc2nc(OCCN3CCOCC3)ccc2S1(=O)=O as the molecule, how does the Kd read?
A: Its Kd is < 1 nM.

Q: For CCn1nnc2c(C)c([C@@H](CC(=O)O)c3ccc(C)c(CN4C[C@H]5CCCCN5c5ncccc5S4(=O)=O)n3)ccc21, which Kd is on record?
A: Its Kd is < 1 nM.

Q: For COC1CCN(CCOc2nc3c(cc2C)S(=O)(=O)N(Cc2cc([C@@H](c4ccn5c(C(F)(F)F)nnc5c4C)C(C)(C)C(=O)O)ccc2C)CC2(CC2)O3)CC1, which Kd is on record?
A: The Kd was < 1 nM.

Q: Which Kd does the source give for Cc1ccc([C@H](c2ccn3c(C(F)F)nnc3c2C)C(C)(C)C(=O)O)nc1CN1CC2(CC2)Oc2nc(OCCN3CCCCC3)c(C)cc2S1(=O)=O here?
A: Its Kd is < 1 nM.

Q: For Cc1ccc([C@@H](c2ccn3c(C(F)F)nnc3c2C)C(C)(C)C(=O)O)cc1CN1CC2(CCOCC2)Oc2nc(OCCN3CCCCC3)c(C)cc2S1(=O)=O, which Kd is on record?
A: The Kd was < 1 nM.

Q: Which Kd does the source give for Cc1cnc2c(c1)S(=O)(=O)N(Cc1nc([C@@H](c3ccn4c(C(F)F)nnc4c3C)C(C)(C)C(=O)O)ccc1C)CC1(CC1)O2 here?
A: Its Kd is < 1 nM.

Q: Which Kd does the source give for CCn1nnc2c(C)c(C(CC(=O)O)c3ccc(C)c(CN4C[C@H]5CCCCN5c5ncccc5S4(=O)=O)n3)ccc21 (stereo not given in full) here?
A: The Kd was < 1 nM.

Q: With Cc1ccc([C@H](CC(=O)O)c2ccn3c(C(F)(F)F)nnc3c2C)cc1CN1C[C@H]2CCCCN2c2ccccc2S1(=O)=O as the molecule, how does the Kd read?
A: Its Kd is < 1 nM.

Q: For Cc1ccc([C@H](c2ccn3c(C(F)(F)F)nnc3c2C)C(C)(C)C(=O)O)cc1CN1CC2(CCOCC2)Oc2nc(N[C@@H](C)CN3CCOCC3)c(C)cc2S1(=O)=O, which Kd is on record?
A: The Kd was < 1 nM.

Q: For Cc1cnc2c(c1)S(=O)(=O)N(Cc1cc([C@H](c3cc4cc(C)nnc4n3C)C(C)(C)C(=O)O)ccc1C)CC1(CC1)O2, which Kd is on record?
A: The Kd was < 1 nM.

Q: Which Kd does the source give for Cc1cnc2c(c1)S(=O)(=O)N(Cc1cc([C@H](c3ccn4c(C(F)(F)F)nnc4c3)C(C)(C)C(=O)O)ccc1C)CC1(CC1)O2 here?
A: Its Kd is < 1 nM.

Q: For Cc1ccc([C@H](c2ccn3c(C(F)(F)F)nnc3c2C)C(C)(C)C(=O)O)cc1CN1CC2(CCOCC2)Oc2nc(NCCN3CCOCC3)c(C)cc2S1(=O)=O, which Kd is on record?
A: Its Kd is < 1 nM.

Q: For CCn1nnc2c(C)c(C(CC(=O)O)c3ccc(C)c(CN4C[C@@H]5CCCCN5c5ncccc5S4(=O)=O)n3)ccc21 (stereo not given in full), which Kd is on record?
A: The Kd was < 1 nM.

Q: For CCn1nnc2c(C)c([C@@H](CC(=O)O)c3ccc(C)c(CN4C[C@@H]5CCCCN5c5ncccc5S4(=O)=O)n3)ccc21, which Kd is on record?
A: Its Kd is < 1 nM.

Q: Which Kd does the source give for Cc1ccc([C@@H](c2ccn3c(C(F)(F)F)nnc3c2C)C(C)(C)C(=O)O)cc1CN1CC2(CCOCC2)Oc2nc(OCCN3CCCC3)c(C)cc2S1(=O)=O here?
A: The Kd was < 1 nM.

Q: Which Kd does the source give for Cc1cnc2c(c1)S(=O)(=O)N(Cc1cc([C@@H](c3ccn4c(C(F)(F)F)nnc4c3C)C(C)(C)C(=O)O)ccc1C)CC1(CC1)O2 here?
A: The Kd was < 1 nM.

Q: With Cc1ccc([C@H](c2ccn3c(C(F)(F)F)nnc3c2C)C(C)(C)C(=O)O)cc1CN1CC2(CCOCC2)Oc2nc(N[C@@H](C)CN3CCCC3)c(C)cc2S1(=O)=O as the molecule, how does the Kd read?
A: The Kd was < 1 nM.

Q: Which Kd does the source give for Cc1ccc([C@@H](c2ccn3c(C(F)(F)F)nnc3c2C)C(C)(C)C(=O)O)cc1CN1CC2(CC2)Oc2ncccc2S1(=O)=O here?
A: Its Kd is < 1 nM.

Q: With Cc1ccc(C(c2ccc3c(nnn3CC3CC3)c2C)C(C)(C)C(=O)O)nc1CN1CC2(CCOCC2)Oc2nc(OCCN3CCOCC3)ccc2S1(=O)=O (stereo not given) as the molecule, how does the Kd read?
A: The Kd was < 1 nM.

Q: Which Kd does the source give for Cc1ccc([C@@H](c2ccc3c(nnn3CC3CC3)c2C)C(C)(C)C(=O)O)nc1CN1CC2(CCOCC2)Oc2nc(OCCN3CCOCC3)ccc2S1(=O)=O here?
A: Its Kd is < 1 nM.

Q: For Cc1ccc([C@@H](c2ccn3c(C(F)F)nnc3c2C)C(C)(C)C(=O)O)nc1CN1CC2(CCOCC2)Oc2nc(OCCN3CCCCC3)c(C)cc2S1(=O)=O, which Kd is on record?
A: Its Kd is < 1 nM.

Q: With Cc1ccc([C@H](CC(=O)O)c2ccn3c(C(F)(F)F)nnc3c2C)cc1CN1CC2(CC2)Oc2ncc(F)cc2S1(=O)=O as the molecule, how does the Kd read?
A: Its Kd is < 1 nM.

Q: Which Kd does the source give for Cc1ccc([C@@H](c2ccn3c(C(F)F)nnc3c2C)C(C)(C)C(=O)O)cc1CN1CC2(CC2)Oc2nc(OCCN3CCCC3)c(C)cc2S1(=O)=O here?
A: The Kd was < 1 nM.

Q: For CCn1nnc2c(C)c([C@@H](CC(=O)O)c3ccc(C)c(CN4C[C@H]5CCCN5c5ncccc5S4(=O)=O)n3)ccc21, which Kd is on record?
A: The Kd was < 1 nM.

Q: Which Kd does the source give for Cc1ccc([C@H](c2ccn3c(C(F)F)nnc3c2C)C(C)(C)C(=O)O)nc1CN1CC2(CC2)Oc2nc(OCCN3CCCC3)c(C)cc2S1(=O)=O here?
A: The Kd was < 1 nM.

Q: With Cc1ccc([C@H](c2ccn3c(C(F)(F)F)nnc3c2C)C(C)(C)C(=O)O)cc1CN1CC2(CCOCC2)Oc2nc(OCCN3CCNCC3)ccc2S1(=O)=O as the molecule, how does the Kd read?
A: The Kd was < 1 nM.

Q: Which Kd does the source give for Cc1ccc([C@@H](c2ccn3c(C(F)(F)F)nnc3c2C)C(C)(C)C(=O)O)cc1CN1CC2(CNC2)Oc2ncccc2S1(=O)=O here?
A: The Kd was < 1 nM.
